This is an account of results in ChEMBL document CHEMBL4007488, “Amphiphilic Indole Derivatives as Antimycobacterial Agents: Structure-Activity Relationships and Membrane Targeting Properties” (J Med Chem, 2017).

The structures appear in SMILES notation. In brackets after ≈: the same amount, converted by molar mass.

The test system of assay [1] is Mycobacterium tuberculosis variant bovis. The experiment in a line: Antimycobacterial activity against Mycobacterium bovis BCG ATCC 35734 after 5 days by broth dilution method. The format is functional. Conditions: ATCC 35734, 120 h. Background: Broth dilution looks for growth in wells or tubes with falling amounts of substance.
Assay [2] shares this test system. The assay is described as follows: Antimycobacterial activity against Mycobacterium bovis BCG ATCC 35734 assessed as growth inhibition at 10 uM after 5 days relative to control. Conditions: ATCC 35734, 120 h, read-out: GI. The format is functional.

By MIC50 is commonly meant the lowest concentration that inhibits either 50% of growth or 50% of the strains tested, depending on the study. Lower therefore signals greater potency. The MIC90 is an inhibitory concentration at the 90% level, which refers to growth in some studies and to a panel of isolates in others. Low readings indicate higher susceptibility, high ones lower susceptibility. For the molecule `CC(C)=CCC/C(C)=C/Cn1cc(CNC2CCCCCC2)c2cc(F)ccc21`, in assay [1], the MIC50 was 45 µM (≈ 17.8 µg/mL) and the MIC90 was 50 µM (≈ 19.8 µg/mL). For the same molecule, the inhibition of growth at 10 µM in assay [2] turned out to be 99%.
Turning to `CCCCCCCCn1cc(CN(CC)CC)c2cc(F)ccc21`, in assay [1], the MIC50 worked out at 10 µM (≈ 3.33 µg/mL) and the MIC90 came to 36 µM (≈ 12 µg/mL). The inhibition of growth at 10 µM in assay [2] came to 99%.
The corresponding values for `CC(C)=CCC/C(C)=C/Cn1cc(CN2CCCCC2)c2cc(F)ccc21` are 5 µM (≈ 1.84 µg/mL), 11 µM (≈ 4.05 µg/mL) and 99%.
The corresponding values for `CCCCCCCCn1cc(CNC23CC4CC(CC(C4)C2)C3)c2ccc(F)cc21` are 3 µM (≈ 1.23 µg/mL), 5 µM (≈ 2.05 µg/mL) and 99%.
In assay [1], `CC(C)=CCC/C(C)=C/Cn1cc(C(=O)N2CCCCC2)c2cc(F)ccc21` gave an MIC50 above 50 µM and an MIC90 above 50 µM. Further, the inhibition of growth at 10 µM in assay [2] amounted to 99%.
In assay [1], `CCCCCCCCn1cc(CN(CCCC)CCCC)c2cc(F)ccc21` registered an MIC50 of 11 µM (≈ 4.27 µg/mL) and an MIC90 above 50 µM. In addition, in assay [2], the inhibition of growth at 10 µM was found to be 99%.
For `CCCCCCCCn1cc(CNC23CC4CC(CC(C4)C2)C3)c2cc(F)ccc21`, in that order: 2.5 to 3 µM (≈ 1.03 to 1.23 µg/mL), 5.5 to 6 µM (≈ 2.26 to 2.46 µg/mL) and 99%.
In assay [1], `CCCCCCCCn1cc(CN2CCCCC2)c2c(OC)cccc21` registered an MIC50 of 16 µM (≈ 5.7 µg/mL) and an MIC90 of 35 µM (≈ 12.5 µg/mL). Besides, in assay [2], the inhibition of growth at 10 µM came out at 99%.
The corresponding values for `CCCCCCCCn1ccc2c(F)cccc21` are above 50 µM, above 50 µM and 99%.
The corresponding values for `N#CCCCn1cc(CN2CCCCC2)c2cc(F)ccc21` are above 50 µM, above 50 µM and 99%.
In assay [1], `CCCCCCCCn1cc(CN2CCCCCC2)c2cccc(OC)c21` registered an MIC50 of 6 µM (≈ 2.22 µg/mL) and an MIC90 of 10 µM (≈ 3.71 µg/mL). Besides, in assay [2], the inhibition of growth at 10 µM is 99%.
The corresponding values for `CC(C)=CCC/C(C)=C/Cn1cc(CN2CCCC2)c2cc(F)ccc21` are 13 µM (≈ 4.61 µg/mL), 25 µM (≈ 8.86 µg/mL) and 99%.
For `COc1ccc2c(c1)c(CN1CCCCC1)cn2C/C=C(\C)CCC=C(C)C`, in that order: 9 µM (≈ 3.43 µg/mL), 12 µM (≈ 4.57 µg/mL) and 99%.
In assay [1], `CC(C)=CCC/C(C)=C/Cn1cc(CN2CCN(C)CC2)c2cc(F)ccc21` came in with an MIC50 of 15 µM (≈ 5.75 µg/mL) and an MIC90 of 23 µM (≈ 8.82 µg/mL). In addition, the inhibition of growth at 10 µM in assay [2] came to 99%.
The corresponding values for `CCCCCCCCn1cc(CNC(C)C)c2cc(F)ccc21` are 12 µM (≈ 3.82 µg/mL), 26 µM (≈ 8.28 µg/mL) and 99%.
Turning to `CCCCCCCCn1cc(CN2CCCCC2)c2cc(F)ccc21`, in assay [1], the MIC50 was found to be 6 µM (≈ 2.07 µg/mL) and the MIC90 is 11 µM (≈ 3.79 µg/mL). In assay [2], the inhibition of growth at 10 µM was determined as 99%.
For `CCCCCCCCn1cc(CNC2CCCCCC2)c2cc(F)ccc21`, in that order: 3 µM (≈ 1.12 µg/mL), 16 µM (≈ 5.96 µg/mL) and 99%.
Regarding `CCCCCCCCn1cc(CN2CCCCC2)c2cc(Cl)ccc21`, in assay [1], the MIC50 stood at 5 µM (≈ 1.8 µg/mL) and the MIC90 is 9 µM (≈ 3.25 µg/mL). In assay [2], the inhibition of growth at 10 µM came to 99%.
In the case of `Fc1ccc2[nH]cc(CN3CCCCC3)c2c1`, in assay [1], the MIC50 was above 50 µM and the MIC90 was above 50 µM. Further, the inhibition of growth at 10 µM in assay [2] came out at 99%.
In assay [1], `CCCCCCCCn1cc(CN(CC)CCC)c2cc(F)ccc21` showed an MIC50 of 7 µM (≈ 2.43 µg/mL) and an MIC90 of 39 µM (≈ 13.5 µg/mL). In assay [2], the inhibition of growth at 10 µM was determined as 99%.
For `CCCCCCCCn1cc(CNC2CC2)c2cc(F)ccc21`, in that order: 11 µM (≈ 3.48 µg/mL), 27 µM (≈ 8.54 µg/mL) and 99%.
The corresponding values for `CCCCn1cc(CN2CCCCC2)c2cc(F)ccc21` are above 50 µM, 100 µM (≈ 28.8 µg/mL) and 99%.
